Data on one compound can be found in US20010039287A1, “AROMATIC SULFONE HYDROXAMIC ACID METALLOPROTEASE INHIBITOR” (priority 1997, published 2001).

Each structure is given as a SMILES string.

Data set [1] concerns neovascularization of the corneal stroma. Description: In vivo angiogenesis assay (corneal micropocket, bFGF pellet). As to conditions: mouse corneal micropocket, 50 mpk bid po, day five, area of neovascularization vs control. As to the method:
The study of angiogenesis depends on a reliable and reproducible model for the stimulation and inhibition of a neovascular response. The corneal micropocket assay provides such a model of angiogenesis in the cornea of a mouse. See, A Model of Angiogenesis in the Mouse Cornea; Kenyon, B M, et al., Investigative ophthalmology & Visual Science, July 1996, Vol. 37, No. 8.
In this assay, uniformLy sized Hydron™ pellets containing bFGF and sucralfate were prepared and surgically implanted into the stroma mouse cornea adjacent to the temporal limbus. […]
Mice were dosed on a daily basis for the duration of the assay. […] At day five, the degree of angiogenic inhibition was scored by viewing the neovascular progression with a slit lamp microscope.
The mice were anesthetized and the studied eye was once again proptosed. The maximum vessel length of neovascularization, extending from the limbal vascular plexus toward the pellet was measured. In addition, the contiguous circumferential zone of neovascularization was measured as clock hours, where 30 degrees of arc equals one clock hour. The area of angiogenesis was calculated as follows. […]
Five to six mice were utilized for each compound in each study. The studied mice were thereafter compared to control mice and the difference in the area of neovascularization was recorded as an averaged value. […]

Data set [2] relates to PC-3 human pancreatic cancer cells (ATCC CRL 1435). Description: In vivo PC-3 tumor reduction. Details: species or system mouse. As to conditions: PC-3 tumor in Balb/c nu/nu mice, day 25-30. As to the method:
PC-3 human pancreatic cancer eclls (ATCC CRL 1435) were grown to 90% confluence in F12/MEM (Gibco) containing 7% FBS (Gibco). Cells were mechanically harvested using a rubber scraper, and then washed twice with cold medium. The resulting cells were resuspended in cold medium with 30% matrigel (Collaborative Research) and the cell-containing medium was maintained on ice until used.
Balb/c nu/nu mice at 7-9 weeks of age were anesthetized with avertin [2,2, 2-tribromethanol/t-amyl alcohol (1 g/l mL) diluted 1:60 into phosphate-buffered sline] and 3-5×10^6 of the above cells in 0.2 mL of medium were injected into the left flank of each mouse. Cells were injected in the morning, whereas dosing with an inhibitor began at 6 PM. The animals were gavaged BID from day zero (cell injection day) to day 25-30, at which time the animals were euthanized and tumors weighed.
Compounds were dosed at 10 mg/mL in 0.5% methylcellulose/0.1% polysorbate 80 to provide a 50 mg/kg (mpk) dose twice each day, or diluted to provide a 10 mg/kg (mpk) dose twice each day. Tumor measurements began on day 7 and continued every third or fourth day until completion of the study. Groups of ten mice were used in each study and nine to ten survived. Each group of mice so studied constitutes an “n” value of one, so that “n” values greater than one represent multiple studies whose averaged result is provided in the table. […]

The subject of data set [3] is solid tumor cancers (colorectal, pancreatic, ovarian, prostate). As to conditions: cited from earlier work.

`CNC(=O)[C@@H](NC(=O)[C@H](CC(C)C)[C@H](O)C(=O)NO)C(C)(C)C` [marimastat]: in data set [1], the “Inhibition of Angiogenesis” value is 48 (n = 6) percent. The “Average Percentage Reduction In Tumor Weight” value was less than 5 Percentage in data set [2] (10 mpk BID gavage) and 39 (n = 2) Percentage in data set [2] (50 mpk BID gavage). The “most common drug-related toxicity” value in data set [3] (clinical trials, patients) is “musculoskeletal pain and stiffness”. For the same compound, the “cancer-specific antigens used as surrogate markers for biological activity” value in data set [3] (patients with advanced, rapidly progressive, treatment-refractory solid tumor cancers) is “dose-related reduction in the rise of cancer-specific antigens”.
